In experiment [1] the test system is Trichophyton mentagrophytes SM-110. The experiment is described as follows: Antifungal activity evaluation test: minimum inhibitory concentration (MIC), broth dilution by reference to CLSI M38-A2. Format: cell-based. The note with it: SM110, read-out: MIC (T. menta.). In outline: (§1)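 Broth microdilution after CLSI M38-A2: 2-fold DMSO dilution series in MOPS-buffered RPMI 1640 pH 7.0, inoculum 2×10^3 cells/mL final. Incubated 35° C for 4 days; MIC (μg/mL) is lowest concentration giving visually ≥80% growth inhibition versus growth control.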
(In broth dilution the organism is exposed to a series of concentrations in liquid medium.)

The test system of experiment [2] is Trichophyton rubrum KD-1130. Described as above. Format: cell-based. The following applies: KD1130, read-out: MIC (T. rubrum). The procedure, abridged:
as §1

As usually defined, the MIC is the lowest concentration that inhibits growth of the organism.

≈ marks a conversion by molar mass, not a printed value.

For `C=Cc1ccc(Oc2ncccc2-c2cnccc2OC)cc1` [I-258, 4′-methoxy-2-(4-vinylphenoxy)-3,3′-bipyridine], the MIC in experiment [1] and in experiment [2] was at most 0.1 µg/mL throughout.

Regarding `COc1ccccc1-c1cccnc1Nc1ccc(C(F)(F)F)nc1` [I-313], the MIC in experiment [1] and in experiment [2] was at most 0.1 µg/mL throughout.

Regarding `FC(F)(F)c1ccc(Oc2ncccc2-c2cncc3nccn23)cc1` [I-231, 5-{2-[4-(trifluoromethyl)phenoxy]pyridin-3-yl}imidazo[1,2-a]pyrazine], the MIC in experiment [1] and in experiment [2] was 1.56 to 6.25 µg/mL (≈ 4.38 to 17.5 µM) each time.

For the compound `COc1cnccc1-c1cccnc1Oc1ccc(C(F)(F)F)cc1` [I-204, 3′-methoxy-2-[4-(trifluoromethyl)phenoxy]-3,4′-bipyridine], the minimal inhibitory concentration (MIC) in experiment [1] and in experiment [2] was at most 0.1 µg/mL in each case.

Turning to `COc1ccccc1-c1cccnc1Oc1ccc(C(F)F)cc1` [I-444], the MIC in experiment [1] and in experiment [2] was at most 0.1 µg/mL each time.

On to `C=C(C)c1ccc(Oc2ncccc2-c2ccccc2OC)cn1` [I-453], for which the MIC in experiment [1] and in experiment [2] was at most 0.1 µg/mL each time.

Take `CCc1ccc(Oc2ncccc2-c2cccc3ccnn23)cc1` [I-292, 7-[2-(4-ethylphenoxy)pyridin-3-yl]pyrazolo[1,5-a]pyridine]: the MIC in experiment [1] and in experiment [2] was at most 0.1 µg/mL in each case.

In the case of `COc1ccncc1-c1cccnc1Oc1ccc(C(C)(F)F)nc1` [I-90, 2-{[6-(1,1-difluoroethyl)pyridin-3-yl]oxy}-4′-methoxy-3,3′-bipyridine], the MIC in experiment [1] and in experiment [2] was 0.2 to 0.78 µg/mL (≈ 0.583 to 2.27 µM) in each case.

Turning to `COCCOCC(F)(F)c1ccc(Oc2ncccc2-c2ccc(F)cc2OC)cn1` [I-159, 2-({6-[1,1-difluoro-2-(2-methoxyethoxy)ethyl]pyridin-3-yl}oxy)-3-(4-fluoro-2-methoxyphenyl)pyridine], the results for the MIC in experiment [1] and in experiment [2] were at most 0.1 µg/mL and 0.2 to 0.78 µg/mL (≈ 0.46 to 1.8 µM), respectively.

Consider `COc1ccccc1-c1cccnc1Oc1ccc(C(F)F)nc1` [I-72, 2-{[6-(difluoromethyl)pyridin-3-yl]oxy}(2-methoxyphenyl)pyridine], for which the MIC in experiment [1] and in experiment [2] was 0.2 to 0.78 µg/mL (≈ 0.609 to 2.38 µM) in each case.

On to `COCC(F)(F)c1ccc(Oc2ncccc2-c2cccc3ncnn23)cn1` [I-343, 5-(2-{[6-(1,1-difluoro-2-methoxyethyl)pyridin-3-yl]oxy}pyridin-3-yl)-[1,2,4]triazolo[1,5-a]pyridine], for which the MIC in experiment [1] and in experiment [2] was 0.2 to 0.78 µg/mL (≈ 0.522 to 2.03 µM) throughout.

Consider `COc1c(F)cccc1-c1cccnc1Oc1ccc(C(F)(F)F)nc1` [I-13, 3-(3-fluoro-2-methoxyphenyl)-2-{[6-(trifluoromethyl)pyridin-3-yl]oxy}pyridine], for which the MIC in experiment [1] and in experiment [2] was at most 0.1 µg/mL throughout.

For the compound `COc1ncc(F)cc1-c1cccnc1Oc1ccc(C(F)(F)F)cc1` [I-209, 5-fluoro-2-methoxy-2′-[4-(trifluoromethyl)phenoxy]-3,3′-bipyridine], the MIC in experiment [1] and in experiment [2] was at most 0.1 µg/mL throughout.

Take `C#Cc1ccccc1-c1cccnc1Oc1ccc(C(F)(F)F)nc1` [I-64, 3-(2-ethynylphenyl)-2-{[6-(trifluoromethyl)pyridin-3-yl]oxy}pyridine]: the MIC in experiment [1] and in experiment [2] was at most 0.1 µg/mL throughout.

Regarding `COc1cc(F)ccc1-c1cncnc1Oc1ccc(C(C)(F)F)nc1` [I-359, 4-{[6-(1,1-difluoroethyl)pyridin-3-yl]oxy}-5-(4-fluoro-2-methoxyphenyl)pyrimidine], the MIC in experiment [1] and in experiment [2] was at most 0.1 µg/mL in each case.

For the compound `COc1ncc(F)cc1-c1cccnc1Oc1cnc(C(F)(F)F)c(C)c1` [I-119, 5-fluoro-2-methoxy-2′-{[5-methyl-6-(trifluoromethyl)pyridin-3-yl]oxy}-3,3′-bipyridine], the MIC in experiment [1] and in experiment [2] was at most 0.1 µg/mL throughout.

Turning to `Cc1noc(-c2ccc(Oc3ncccc3-c3cnccc3C)cc2)n1` [I-421], the MIC in experiment [1] and in experiment [2] was at most 0.1 µg/mL each time.

As for `CCOC(=O)c1ccc(Oc2ncccc2-c2cnccc2OCC)cc1` [I-415, ethyl 4-{[4′-ethoxy-(3,3′-bipyridin)-2-yl]oxy}benzoate], the MIC in experiment [1] and in experiment [2] was at most 0.1 µg/mL in each case.

`COc1ncccc1-c1cccnc1Oc1ccc(C(F)(F)CO)cc1` [I-434]: the MIC in experiment [1] lay in the range of 0.2 to 0.78 µg/mL (≈ 0.558 to 2.18 µM); in experiment [2], 1.56 to 6.25 µg/mL (≈ 4.35 to 17.4 µM).

Regarding `COCC(F)(F)c1ccc(Oc2ncccc2-c2cc(OC)c(F)cc2F)cn1` [I-165, 2-{[6-(1,1-difluoro-2-methoxyethyl)pyridin-3-yl]oxy}-3-(2,4-difluoro-5-methoxyphenyl)pyridine], the MIC in experiment [1] and in experiment [2] was at most 0.1 µg/mL in each case.

Turning to `CC(F)(F)c1ccc(Oc2ncccc2-c2cncc3ccccc23)cn1` [I-109, 4-(2-{[6-(1,1-difluoroethyl)pyridin-3-yl]oxy}pyridin-3-yl)isoquinoline], the MIC in experiment [1] and in experiment [2] was at most 0.1 µg/mL throughout.

Turning to `COc1ccncc1-c1cccnc1Oc1ccc(C(C)(F)F)c(F)c1` [I-304], the MIC in experiment [1] and in experiment [2] was at most 0.1 µg/mL throughout.

For the compound `Nc1ccccc1-c1cccnc1Oc1ccc(C(F)(F)F)nc1` [I-61, 2-(2-{[6-(trifluoromethyl)pyridin-3-yl]oxy}pyridin-3-yl)-aniline], the minimum inhibitory concentration (MIC) in experiment [1] and in experiment [2] was 1.56 to 6.25 µg/mL (≈ 4.71 to 18.9 µM) throughout.

With `COc1ccncc1-c1cccnc1Oc1ccc(SC(F)(F)F)cc1` [I-239, 4′-methoxy-2-{4-[(trifluoromethyl)thio]phenoxy}-3,3′-bipyridine], the MIC in experiment [1] and in experiment [2] was 0.2 to 0.78 µg/mL (≈ 0.529 to 2.06 µM) each time.

Consider `Cc1ncc(-c2ccc(Oc3ncccc3-c3cnccc3C)cc2)o1` [I-423], for which the MIC in experiment [1] and in experiment [2] was at most 0.1 µg/mL in each case.

In the case of `COc1ccc(F)cc1-c1cccnc1Oc1cnc(C(F)F)c(C)c1` [I-122, 2-(difluoromethyl)-5-{[3-(5-fluoro-2-methoxyphenyl)pyridin-2-yl]oxy}-3-methylpyridine], the MIC in experiment [1] and in experiment [2] was at most 0.1 µg/mL each time.

As to `COC(=O)CN(C)c1ncc(Oc2ncccc2-c2ccc(F)cc2OC)cn1` [I-192, methyl 2-[(5-{[3-(4-fluoro-2-methoxyphenyl)pyridin-2-yl]oxy}-pyrimidin-2-yl)(methyl)amino]acetate], the MIC in experiment [1] and in experiment [2] was at most 0.1 µg/mL throughout.

Regarding `COc1ncccc1-c1cccnc1Oc1ccc(CCOC(C)=O)cc1` [I-397, 4-{[(2′-methoxy)-(3,3′-bipyridin)-2-yl]oxy}phenethyl acetate], the MIC in experiment [1] and in experiment [2] was at most 0.1 µg/mL throughout.

With `COc1ccncc1-c1cncnc1Oc1ccc(Cl)cc1` [I-357, 4-(4-chlorophenoxy)-5-(4-methoxypyridin-3-yl)pyrimidine], the MIC in experiment [1] is 0.2 to 0.78 µg/mL (≈ 0.637 to 2.49 µM); in experiment [2], 1.56 to 6.25 µg/mL (≈ 4.97 to 19.9 µM).

For `COc1ncccc1-c1cccnc1Oc1ccc2c(c1)CCCC2=O` [I-272, 6-{[2′-methoxy-(3,3-bipyridin)-2-yl]oxy}-3,4-dihydronaphthalen-1(2H)-one], the MIC in experiment [1] and in experiment [2] was at most 0.1 µg/mL in each case.

With `COCC(F)(F)c1ccc(Oc2ncccc2-c2cnccc2OC)cn1` [I-349, 2-{[6-(1,1-difluoro-2-methoxyethyl)pyridin-3-yl]oxy}-4′-methoxy-3,3′-bipyridine], the MIC in experiment [1] and in experiment [2] was 1.56 to 6.25 µg/mL (≈ 4.18 to 16.7 µM) each time.

The record behind these values is patent US10647675B2 (priority 2015, dated 2020).
